# Ends that are not written are not given here.
# System: experimental pyelonephritis
# Assay: BALB/c murine model of experimental pyelonephritis, F13 peptide conjugate vaccines
# Type: in vivo
# Details: BALB/c mice, serial parenteral administration of vaccine, intravesicular challenge
row,Sequence,protection in experimental pyelonephritis
1,AKFGGMGAKKG (also: conjugated to carrier protein) [F13 structural pilin peptide conjugate vaccine],protective
2,PQGQGKVT (also: conjugated to carrier protein) [F72 and F13 pilin A synthetic peptide conjugate vaccine],protective

# System: homologous piliated Escherichia coli challenge strains (renal and/or bladder colonization)
# Assay: Intravesicular BALB/c experimental model of pyelonephritis and cystitis, pilin A synthetic peptide conjugate vaccines
# Type: in vivo
# Details: BALB/c mice, thyroglobulin and BSA conjugates ~200 ug i.m. day 0 and 14 in incomplete Freund's adjuvant; bladder inoculation 10^8 CFU homologous piliated strain; renal/bladder colonization at 48 hours; protection = >90% of cohort no growth and none >500 CFU per 0.1 gram
# Method: The intravesicular BALB/c experimental model of pyelonephritis and cystitis, as originally described by O'Hanley, was employed to evaluate the protective capacity of structural pilin synthetic peptide conjugate vaccines to prevent subsequent renal and/or bladder colonization by homologous piliated strains at 48 hours after bacterial bladder inoculation. Cohorts of 20 mice per group were vaccinated via intramuscular administration on two occasions with the experimental thyroglobulin and bovine serum albumin conjugate pilin A vaccines (i.e., day 0 and day 14). Each intramuscular dose of experimental vaccine consisted of ^˜200 ug in 100 ul saline emulsified in 100 ul incomplete Freund's adjuvant. Control vaccines consisted of thyroglobulin and bovine serum albumin emulsified in saline and incomplete Freund's adjuvant. These control vaccines were administered in similar fashion and schedule as the experimental vaccines. Challenge for pilin A vaccinated mice entailed bladder inoculation of 10^8 CFU of an Escherichia coli strain that expressed homologous pili. In contrast, the cohort size for control animals was 5 per challenge strain. The table below summarizes the challenge strategy.
# Protection against subsequent renal colonization and bladder colonization by the challenge strain was defined by >90% of the experimental animals in a cohort (i.e., 18 of 20 vaccinated experimental mice) having no bacterial growth from aliquots of homogenized whole right kidney and aliquots of homogenized whole bladders and none of the experimental animals having heavy bacterial growth from the challenge strain in renal or bladder specimens (viz., the absence of ++++ colonization density or >500 CFU of the challenge strain per 0.1 gram of renal or bladder tissue) compared to heavy growth of the challenge strain in both renal and bladder specimens (++++ colonization density or >500 CFU per 0.1 gm of renal or bladder tissue) by the challenge strain in >80% of control animals (i.e. >4 of 5 control mice).
row,Sequence,Homologous Protection
1,IPEGQGKVT (also: conjugated to thyroglobulin or BSA) [F12 pilin A synthetic peptide conjugated to thyroglobulin or bovine serum albumin],Yes
2,IPQGQGKVTFNGTV (also: conjugated to carrier protein) [F11 pilin A synthetic peptide conjugate vaccine],Yes
3,NFKKAAGGGGAKT (also: conjugated to thyroglobulin or BSA) [F72 pilin A synthetic peptide conjugated to thyroglobulin or bovine serum albumin],Yes
4,NFKKAATPGGAAKT (also: conjugated to thyroglobulin or BSA) [F9 pilin A synthetic peptide conjugated to thyroglobulin or bovine serum albumin],Yes
5,NFKQLQGGAAKKG (also: conjugated to thyroglobulin or BSA) [F71 pilin A synthetic peptide conjugated to thyroglobulin or bovine serum albumin],Yes
6,NGGTVHFKGEVVN (also: conjugated to thyroglobulin or BSA) [F1C structural pilin synthetic peptide conjugated to thyroglobulin or bovine serum albumin],Yes
7,PQGQGEVA (also: conjugated to thyroglobulin or BSA) [F71 pilin A synthetic peptide conjugated to thyroglobulin or bovine serum albumin],Yes
8,PQGQGEVT (also: conjugated to thyroglobulin or BSA) [F71 pilin A synthetic peptide conjugated to thyroglobulin or bovine serum albumin],Yes
9,PQGQGKVT (also: conjugated to carrier protein) [F72 and F13 pilin A synthetic peptide conjugate vaccine],Yes
10,TTVNGGTVH (also: conjugated to carrier protein) [F9 pilin A synthetic peptide conjugate vaccine],Yes
11,TTVTVNGGTVHF (also: conjugated to thyroglobulin or BSA) [F1 structural pilin synthetic peptide conjugated to thyroglobulin or bovine serum albumin],Yes
